{
  "source": "patent EP4591861A1",
  "about": "(IBIOME Biotechnology Co., Ltd., priority 2022, dated 2024)",
  "key": {"[1]": {"tested_on": "AAD-induced depression model", "assay": "Forced swimming test in AAD-induced depression model", "type": "in vivo, mice", "details": "for immobility time: forced swimming, AAD mice, 2 hours after administration", "experimental": "The forced swimming test apparatus is a transparent 20×30cm round barrel filled with pure water, with a diameter of 20cm and a water depth of 15cm. The pure water temperature is 23-25°C. A camera is installed in front of the apparatus and is flush with the water surface. After the mouse is placed in the water, a video of its activities in the water is collected for 6 minutes. The last 4 min of the video were analyzed to determine the immobility time of the mouse. Immobility behavior is defined as the behavior of the mouse floating, not struggling, or relying only on occasional swinging to maintain floating. The longer the immobility time, the more severe the depression.\n(§1) 11, 12, and 13. […] At the same time, it still has a significant antidepressant effect at concentrations of 0.3 mg/kg, 1 mg/kg, and 10 mg/kg."}, "[2]": {"tested_on": "AAD-induced depression model", "assay": "Sucrose preference test in AAD-induced depression model", "type": "in vivo", "details": "AAD mice; 0.1 mg/kg intravenous; versus AAD mice + normal saline group (P<0.01)", "experimental": "as §1"}, "[3]": {"target": "T1, human BBOX1 (Homo sapiens, UniProt O75936)", "T1 sequence (O75936 1-387)": "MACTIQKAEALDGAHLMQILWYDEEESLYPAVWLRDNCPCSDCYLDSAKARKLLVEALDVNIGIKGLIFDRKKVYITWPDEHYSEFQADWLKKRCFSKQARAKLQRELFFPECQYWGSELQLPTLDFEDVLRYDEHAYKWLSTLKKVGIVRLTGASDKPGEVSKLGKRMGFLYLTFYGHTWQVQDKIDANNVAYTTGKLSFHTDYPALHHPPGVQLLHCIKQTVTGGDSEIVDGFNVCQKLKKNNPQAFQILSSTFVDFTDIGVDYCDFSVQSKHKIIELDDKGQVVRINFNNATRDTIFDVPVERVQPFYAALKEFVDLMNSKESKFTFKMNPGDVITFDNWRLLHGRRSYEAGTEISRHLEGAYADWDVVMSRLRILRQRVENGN", "details": "binding to the active site of human BBOX1; background statement; cited from earlier work"}, "[4]": {"tested_on": "CRS-induced depression model", "assay": "Sucrose preference test in CRS-induced depression model", "details": "CRS mice; 0.1 mg/kg intravenous; versus CRS + normal saline group (P<0.01)", "from_the_text": "After adapting to the environment, from day 0, the CRS mouse group was subjected to chronic, unpredictable mild stimulation for 21 days to simulate the chronic low-intensity stress received by humans in daily life. Every day, one stimulus was selected from the day and night to treat the mice, and the order was random and continuous without repetition, so that the mice could not predict the appearance of the stimulus (Table 1).\nTwo hours after administration, the mice were subjected to forced swimming and tail suspension tests, and the immobility time of the mice in each group in the forced swimming and tail suspension tests was compared.\nThe sucrose preference test is used to evaluate the sucrose water preference of mice, which can reflect the degree of anhedonia of mice. In the entire animal experiment, a total of two sucrose preference tests were conducted. Before modeling, the sucrose preference coefficient of all mice was measured by the sucrose preference tests to ensure that the mice in the experiment were in the same state. After the test, the sucrose preference tests were formally carried out, including the adaptation training part and the test part. […] After the adaptation, fasting and water deprivation for 24 hours, and then the sucrose preference coefficient was measured. […]"}, "[5]": {"tested_on": "Cort-induced depression model", "assay": "Sucrose preference test in Cort-induced depression model", "details": "Cort mice; 0.1 mg/kg intravenous; versus Cort mice + normal saline group (P<0.01)", "method": "The sucrose preference test is used to evaluate the sucrose water preference of mice, which can reflect the degree of anhedonia of mice. In the entire animal experiment, a total of two sucrose preference tests were conducted. Before modeling, the sucrose preference coefficient of all mice was measured by the sucrose preference tests to ensure that the mice in the experiment were in the same state. After the test, the sucrose preference tests were formally carried out, including the adaptation training part and the test part. In the training, two bottles of 1% (w/v) sucrose solution were placed in each cage of mice in the first 24 hours, and one of the bottles was replaced with pure water in the next 24 hours. After the adaptation, fasting and water deprivation for 24 hours, and then the sucrose preference coefficient was measured. In the test, mice can only choose two bottles weighed in advance, one bottle is 1% (w/v) sucrose solution, and the other bottle is pure water. After fasting for 24 hours, take away the two bottles and weigh them, and record the total liquid consumption, sucrose water consumption and pure water consumption of the mice. The calculation method of sucrose preference coefficient is: sucrose preference coefficient (%) = sucrose water consumption/ (sucrose water consumption + pure water consumption) × 100%. […]"}, "[6]": {"tested_on": "AAD-induced depression model", "assay": "Tail suspension test in AAD-induced depression model", "type": "in vivo", "details": "AAD mice, 2 hours after administration", "experimental": "The tail suspension test uses tape to suspend mice by their tails in a position where they cannot escape or grab onto nearby surfaces. A camera is mounted in front of the mice to record the activity of the mice for 6 minutes while they are suspended. The last 4 min of the video is then analyzed to determine the time the mice spend immobile. This test is based on the idea that animals that are subjected to short-term, unavoidable stress will develop an immobile posture, and the more severe the depressive phenotype, the less time they will spend trying to escape.\nas §1"}, "[7]": {"details": "0.1 mg/kg intravenous, versus AAD mice + normal saline group"}},
  "data": [
    {"smiles": "CC(CCC(=O)[O-])[N+](C)(C)C", "note": "(stereo not shown) [4-TMAP, 4-(trimethylammonio) pentanoate]", "values": [
      {"measurement": "duration of the antidepressant effect after a single administration", "setting": "[1]; mouse, in vivo, iv, 0.1 mg/kg", "result": "24 to 36", "unit": "h"},
      {"measurement": "sucrose preference", "setting": "[2]", "result": "significantly higher"},
      {"measurement": "dissociation constant", "setting": "[3]", "result": "low"},
      {"measurement": "sucrose preference", "setting": "[4]", "result": "significantly higher"},
      {"measurement": "sucrose preference", "setting": "[5]", "result": "significantly higher"}
    ]},
    {"smiles": "O=c1ccc2ccc(OCCCCN3CCN(c4cccc5sccc45)CC3)cc2[nH]1", "note": "[Brexpiprazole]", "values": [
      {"measurement": "immobility time", "setting": "[1]; [7]", "result": "cannot change the depressive-like behavior"},
      {"measurement": "immobility time", "setting": "[1]; 3 mg/kg intravenous", "result": "significantly reducing"},
      {"measurement": "immobility time", "setting": "[6]; [7]", "result": "cannot change the depressive-like behavior"},
      {"measurement": "immobility time", "setting": "[6]; 3 mg/kg intravenous", "result": "significantly reducing"},
      {"measurement": "sucrose preference", "setting": "[2]", "result": "cannot change the depressive-like behavior"}
    ]}
  ]
}
